Assays:
Details in all cases: exposure time: 72 h
E28 [1] = patient-derived glioblastoma stem cells of classical subtype; experiment: surviving fraction (nuclei count normalised to DMSO); higher = more cells surviving (less toxic)
E13 [2] = patient-derived glioblastoma stem cells of classical subtype; experiment: as above
E57 [3] = patient-derived glioblastoma stem cells of mesenchymal subtype; experiment: as above
E21 [4] = patient-derived glioblastoma stem cells of mesenchymal subtype; experiment: as above
E31 [5] = patient-derived glioblastoma stem cells of proneural subtype; experiment: as above
FT3469 [6] = normal neural stem cell line; experiment: as above
E34 [7] = patient-derived glioblastoma stem cells of proneural subtype; experiment: as above
E28 [8] = experiment: phenotypic distance (Euclidean, principal components) from DMSO controls (arbitrary units); higher = stronger morphological change
E13 [9] = experiment: as above
E57 [10] = experiment: as above
E21 [11] = experiment: as above
E31 [12] = experiment: as above
FT3469 [13] = experiment: as above
E34 [14] = experiment: as above
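For phenotypic distance (Euclidean, principal components) from DMSO controls in this document: cell Painting imaging in 384-well plates, CellProfiler features reduced to at least 20 principal components, Euclidean distance versus same-plate DMSO vehicle wells (0.1% v/v), median over six images per well.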
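For surviving fraction (nuclei count normalised to DMSO) in this document: nuclei counted by high-content imaging of Hoechst-stained cells in laminin-coated 384-well plates, relative to 0.1% DMSO vehicle wells, with staurosporine as cell-death control.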

COc1cc2ncnc(Nc3cccc(Br)c3)c2cc1OC
Details	phenotypic distance	surviving fraction
E13 [2], 4.1 nM	–	0.967
E13 [2], 12.3 nM	–	1.02
E13 [2], 37 nM	–	0.972
E13 [2], 111.1 nM	–	0.952
E13 [2], 333.3 nM	–	1.14
E13 [2], 1000 nM	–	1.04
E13 [2], 3000 nM	–	0.903
E13 [9], 4.1 nM	3.14	–
E13 [9], 12.3 nM	0.603	–
E13 [9], 37 nM	1.05	–
E13 [9], 111.1 nM	4.7	–
E13 [9], 333.3 nM	3.33	–
E13 [9], 1000 nM	1.72	–
E13 [9], 3000 nM	1.27	–
E21 [4], 4.1 nM	–	1.02
E21 [4], 12.3 nM	–	0.921
E21 [4], 37 nM	–	0.943
E21 [4], 111.1 nM	–	0.867
E21 [4], 333.3 nM	–	1.06
E21 [4], 1000 nM	–	0.88
E21 [4], 3000 nM	–	0.346
E21 [11], 4.1 nM	0.609	–
E21 [11], 12.3 nM	1.01	–
E21 [11], 37 nM	0.8	–
E21 [11], 111.1 nM	3.3	–
E21 [11], 333.3 nM	0.937	–
E21 [11], 1000 nM	1.35	–
E21 [11], 3000 nM	5.43	–
E28 [1], 4.1 nM	–	1.07
E28 [1], 12.3 nM	–	0.99
E28 [1], 37 nM	–	0.899
E28 [1], 111.1 nM	–	0.898
E28 [1], 333.3 nM	–	0.963
E28 [1], 1000 nM	–	0.944
E28 [1], 3000 nM	–	0.918
E28 [8], 4.1 nM	0.79	–
E28 [8], 12.3 nM	0.832	–
E28 [8], 37 nM	0.627	–
E28 [8], 111.1 nM	1.04	–
E28 [8], 333.3 nM	1.13	–
E28 [8], 1000 nM	1.23	–
E28 [8], 3000 nM	0.966	–
E31 [5], 4.1 nM	–	1.05
E31 [5], 12.3 nM	–	0.755
E31 [5], 37 nM	–	0.826
E31 [5], 111.1 nM	–	0.837
E31 [5], 333.3 nM	–	0.877
E31 [5], 1000 nM	–	0.767
E31 [5], 3000 nM	–	0.97
E31 [12], 4.1 nM	0.794	–
E31 [12], 12.3 nM	0.613	–
E31 [12], 37 nM	0.892	–
E31 [12], 111.1 nM	0.732	–
E31 [12], 333.3 nM	1.01	–
E31 [12], 1000 nM	0.889	–
E31 [12], 3000 nM	1.3	–
E34 [7], 4.1 nM	–	1.05
E34 [7], 12.3 nM	–	0.884
E34 [7], 37 nM	–	1.07
E34 [7], 111.1 nM	–	1.12
E34 [7], 333.3 nM	–	0.965
E34 [7], 1000 nM	–	1.07
E34 [7], 3000 nM	–	0.81
E34 [14], 4.1 nM	0.973	–
E34 [14], 12.3 nM	0.835	–
E34 [14], 37 nM	1.15	–
E34 [14], 111.1 nM	1.03	–
E34 [14], 333.3 nM	1.14	–
E34 [14], 1000 nM	1.16	–
E34 [14], 3000 nM	2.27	–
E57 [3], 4.1 nM	–	0.926
E57 [3], 12.3 nM	–	0.974
E57 [3], 37 nM	–	0.909
E57 [3], 111.1 nM	–	0.83
E57 [3], 333.3 nM	–	0.818
E57 [3], 1000 nM	–	0.793
E57 [3], 3000 nM	–	0.656
E57 [10], 4.1 nM	0.927	–
E57 [10], 12.3 nM	1.19	–
E57 [10], 37 nM	1.4	–
E57 [10], 111.1 nM	1.37	–
E57 [10], 333.3 nM	1.71	–
E57 [10], 1000 nM	1.59	–
E57 [10], 3000 nM	1.98	–
FT3469 [6], 4.1 nM	–	0.879
FT3469 [6], 12.3 nM	–	0.996
FT3469 [6], 37 nM	–	0.905
FT3469 [6], 111.1 nM	–	0.858
FT3469 [6], 333.3 nM	–	1.05
FT3469 [6], 1000 nM	–	1.04
FT3469 [6], 3000 nM	–	1.06
FT3469 [13], 4.1 nM	0.686	–
FT3469 [13], 12.3 nM	0.611	–
FT3469 [13], 37 nM	0.986	–
FT3469 [13], 111.1 nM	0.512	–
FT3469 [13], 333.3 nM	0.982	–
FT3469 [13], 1000 nM	0.82	–
FT3469 [13], 3000 nM	1.29	–

CC(=O)c1cnc2ccc(-c3cc(Cl)c(O)c(Cl)c3)nc2c1N[C@H]1CC[C@H](CN(C)C)CC1 [OTSSP167]
Details	phenotypic distance	surviving fraction
E13 [2], 0.4 nM	–	0.96
E13 [2], 1.2 nM	–	0.925
E13 [2], 3.7 nM	–	0.908
E13 [2], 11.1 nM	–	0.685
E13 [2], 33.3 nM	–	0.422
E13 [2], 100 nM	–	0.205
E13 [2], 300 nM	–	0.1423
E13 [9], 0.4 nM	1.66	–
E13 [9], 1.2 nM	1.67	–
E13 [9], 3.7 nM	2.455	–
E13 [9], 11.1 nM	3.33	–
E13 [9], 33.3 nM	6.59	–
E13 [9], 100 nM	7.76	–
E13 [9], 300 nM	8.64	–
E21 [4], 0.4 nM	–	0.988
E21 [4], 1.2 nM	–	1.09
E21 [4], 3.7 nM	–	0.945
E21 [4], 11.1 nM	–	0.737
E21 [4], 33.3 nM	–	0.546
E21 [4], 100 nM	–	0.317
E21 [4], 300 nM	–	0.161
E21 [11], 0.4 nM	1.7	–
E21 [11], 1.2 nM	2.06	–
E21 [11], 3.7 nM	2.41	–
E21 [11], 11.1 nM	2.49	–
E21 [11], 33.3 nM	4.22	–
E21 [11], 100 nM	4.87	–
E21 [11], 300 nM	6.25	–
E28 [1], 0.4 nM	–	1.04
E28 [1], 1.2 nM	–	1.21
E28 [1], 3.7 nM	–	1.16
E28 [1], 11.1 nM	–	0.994
E28 [1], 33.3 nM	–	0.575
E28 [1], 100 nM	–	0.247
E28 [1], 300 nM	–	0.233
E28 [8], 0.4 nM	1.32	–
E28 [8], 1.2 nM	1.49	–
E28 [8], 3.7 nM	1.75	–
E28 [8], 11.1 nM	2.62	–
E28 [8], 33.3 nM	4.37	–
E28 [8], 100 nM	4.36	–
E28 [8], 300 nM	4.295	–
E31 [5], 0.4 nM	–	0.94
E31 [5], 1.2 nM	–	0.896
E31 [5], 3.7 nM	–	1.02
E31 [5], 11.1 nM	–	0.913
E31 [5], 33.3 nM	–	0.59
E31 [5], 100 nM	–	0.196
E31 [5], 300 nM	–	0.0607
E31 [12], 0.4 nM	1.92	–
E31 [12], 1.2 nM	2.29	–
E31 [12], 3.7 nM	2.8	–
E31 [12], 11.1 nM	2.81	–
E31 [12], 33.3 nM	2.5	–
E31 [12], 100 nM	5.33	–
E31 [12], 300 nM	7.69	–
E34 [7], 0.4 nM	–	1
E34 [7], 1.2 nM	–	0.983
E34 [7], 3.7 nM	–	0.947
E34 [7], 11.1 nM	–	0.748
E34 [7], 33.3 nM	–	0.535
E34 [7], 100 nM	–	0.567
E34 [7], 300 nM	–	0.384
E34 [14], 0.4 nM	1.46	–
E34 [14], 1.2 nM	1.96	–
E34 [14], 3.7 nM	1.73	–
E34 [14], 11.1 nM	2.43	–
E34 [14], 33.3 nM	3.89	–
E34 [14], 100 nM	2.89	–
E34 [14], 300 nM	2.9	–
E57 [3], 0.4 nM	–	1.43
E57 [3], 1.2 nM	–	1.46
E57 [3], 3.7 nM	–	1.48
E57 [3], 11.1 nM	–	1.23
E57 [3], 33.3 nM	–	0.626
E57 [3], 100 nM	–	0.171
E57 [3], 300 nM	–	0.108
E57 [10], 0.4 nM	1.81	–
E57 [10], 1.2 nM	2.24	–
E57 [10], 3.7 nM	2.97	–
E57 [10], 11.1 nM	3.48	–
E57 [10], 33.3 nM	4.61	–
E57 [10], 100 nM	7.8122	–
E57 [10], 300 nM	5.83	–
FT3469 [6], 0.4 nM	–	1.13
FT3469 [6], 1.2 nM	–	1.2
FT3469 [6], 3.7 nM	–	1.08
FT3469 [6], 11.1 nM	–	0.783
FT3469 [6], 33.3 nM	–	0.638
FT3469 [6], 100 nM	–	0.502
FT3469 [6], 300 nM	–	0.45
FT3469 [13], 0.4 nM	2.21	–
FT3469 [13], 1.2 nM	2.77	–
FT3469 [13], 3.7 nM	3.26	–
FT3469 [13], 11.1 nM	3.53	–
FT3469 [13], 33.3 nM	4.08	–
FT3469 [13], 100 nM	4.14	–
FT3469 [13], 300 nM	3.137	–

From the supplement of paper PMC13207355
